Measurements reported in patent US5474989A, “Drug composition” (priority 1988, dated 1995).

Assays:
[1] = Dissolution rate of drug into water, solid dispersion with low molecular weight chitosan C-5 versus drug alone (Example 4); type: physicochemical; conditions: drug alone without additive; 10 to 30 mg in 60 ml, 57 rpm, water 37° C.
Procedure: Each 3 parts by weight of the chitosan products C-0 to C-5 was added to 1 part by weight of flurbiprofen (denoted sometimes hereinafter as FP) and the mixture kneaded with the addition of water in an amount of 2-fold of that of the chitosan product for 1 hour. The kneaded mixture was dried under a reduced pressure at room temperature for 48 hours. A fraction of the particles that passed through 100-mesh standard sieve was employed as the solid dispersion. For each of these solid dispersions, the dissolution rate of FP into water at 37° C. was observed by the procedure given below:
500 ml of water were charged in a dissolution rate measuring device (made by Toyama Sangyo Co., Ltd.) maintained at 37° C. and thereto was further added each of the above solid dispersions in an amount corresponding to 40 mg as FP and the mixture was agitated at 91 rpm. The agitated mixture was sampled each in an amount of 3 ml at a regular time interval with a pipette fitted with a cotton plug. Each sample was filtered through a 0.45 μm membrane filter and the FP concentration of the filtrate was determined after extraction with chloroform.
The rate of dissolution was determined for drug compositions having the low molecular weight chitosan C-5 obtained in Reference Example 1, by observing the concentration of the drug in the same manner as in Example 1 at a regular time interval except that the drug was charged in an amount within the range of from 10 to 30 mg in 60 ml of solution and the agitation was effected at 57 rpm. The ratio of the dissolved amount of drug to the total charged amount of the drug was calculated. Results are summarized in FIGS. 5(A)- 5(G) in a corresponding graph. The experimental results for flurbiprofen are given here again.
The average dissolution time calculated from the rate of dissolution for each drug is recited in Table 3. The calculation of the average dissolution time was made basing on the method given in "Chem. Pharm. Bull.", 30, 1088 (1982).

[2] = Solubility of drugs in aqueous solutions of low molecular weight chitosan C-5 (Example 3); conditions: aqueous solution of C-5, varying concentration, 25° C., 10 days
Procedure: Each 5 mg of vitamin E and vitamin K was accurately weighed (this amount is chosen so as to exceed above the solubility limits of these drugs) and placed in a test tube. […] Each of the solutions which reached dissolution equilibrium was sampled with a pippette fitted with a cotton plug. The sample was filtered through a 0.45 μm membrane filter and the concentration of vitamin E or vitamin K was determined by means of UV-determination after extraction with chloroform.

[3] = Wetting contact angle of water drops on tablet surface (Example 7); type: physicochemical; conditions: tablet 2 cm diameter, 50 μl water drop
Procedure: Examination was effected for the samples of the solid dispersions as obtained in Example 5 and for each drug alone without any additive. The wetting was evaluated by determining the wetting contact angle of water drops on the surface of a tablet having a diameter of 2 cm obtained using an IR tabletting machine with a drop of water of 50 μl.

[4] = chitosan in a form of a solution of acetic acid salt, versus polyvinylpyrrolidone; cited from earlier work

Wetting Contact Angle, Drug alone [3] | Compound | Average Dissolution Time, Drug alone [1] | solubility of drug with increasing concentration of low molecular weight chitosan [2] | effect of chitosan on the dissolution rate of kitasamycin [4] | dissolution characteristic curve type [2]
– | O=C1NC(=O)C(c2ccccc2)(c2ccccc2)N1 [Phenytoin, phenytoin] | 35.9 min | an increase in the solubility of the drug was recognized | – | –
50 ° | C[C@]12C=CC(=O)C=C1CC[C@H]1[C@@H]3C[C@@H](O)[C@](O)(C(=O)CO)[C@@]3(C)C[C@H](O)[C@@]12F [Triamcinolone, triamcinolone] | 24.3 min | – | – | –
55 ° | CC(C(=O)O)c1ccc(-c2ccccc2)c(F)c1 (centres unmarked) [Flurbiprofen, flurbiprofen] | 46.1 min | – | – | –
– | C[C@]12C=CC(=O)C=C1CC[C@@H]1[C@@H]2[C@@H](O)C[C@@]2(C)[C@H]1CC[C@]2(O)C(=O)CO [Prednisolone, prednisolone] | 18.7 min | – | – | –
– | CO[C@@H]1[C@@H](O[C@@H]2O[C@H](C)[C@@H](O[C@H]3C[C@@](C)(O)[C@@H](OC(=O)CC(C)C)[C@H](C)O3)[C@H](N(C)C)[C@H]2O)[C@@H](CC=O)C[C@@H](C)[C@@H](O)/C=C/C=C/C[C@@H](C)OC(=O)C[C@H]1O [kitasamycin] | – | – | lower than that of polyvinylpyrrolidone | –
– | C[C@H]1C[C@H]2[C@@H]3CCC4=CC(=O)C=C[C@]4(C)[C@@]3(F)[C@@H](O)C[C@]2(C)[C@@]1(O)C(=O)CO [Betamethasone, betamethasone] | 45.9 min | – | – | dissolution characteristic curve of Bs-type
– | C[C@H]1O[C@@H](O[C@H]2[C@@H](O)C[C@H](O[C@H]3[C@@H](O)C[C@H](O[C@H]4CC[C@@]5(C)[C@H](CC[C@@H]6[C@@H]5C[C@@H](O)[C@]5(C)[C@@H](C7=CC(=O)OC7)CC[C@]65O)C4)O[C@@H]3C)O[C@@H]2C)C[C@H](O)[C@@H]1O [Digoxin, digoxin] | 40.9 min | an increase in the solubility of the drug was recognized | – | –

Compound | Wetting Contact Angle, Drug alone [3] | Average Dissolution Time, Drug alone [1] | solubility of drug with increasing concentration of low molecular weight chitosan [2] | effect of chitosan on the dissolution rate of kitasamycin [4] | dissolution characteristic curve type [2]
COc1ccc2c(c1)c(CC(=O)O)c(C)n2C(=O)c1ccc(Cl)cc1 [Indomethacin, indomethacin] | 50 ° | 24.8 min | – | – | –
